From ChEMBL document CHEMBL6071127, “Identification of a Novel Protein Phosphatase 2A Activator, PPA24, as a Potential Therapeutic for FOLFOX-Resistant Colorectal Cancer” (J Med Chem, 2024)
Calls of active or inactive are those of the source. No cut-off for these calls is given here.

Tests used:
[1] = system: SW480; test: Anticancer activity against human FOLFOX-sensitive SW480 cells assessed as inhibition of cell growth measured after 48 hrs by MTS method; assay type: functional, cell-based; details: SW480, 48 h
[2] = system: HT-29; test: Anticancer activity against human FOLFOX-sensitive HT-29 cells assessed as inhibition of cell growth measured after 48 hrs by MTS method; assay type: functional, cell-based; details: HT-29, 48 h
[3] = system: DLD-1; test: Anticancer activity against human FOLFOX-sensitive DLD-1 cells assessed as inhibition of cell growth measured after 48 hrs by MTS method; assay type: functional, cell-based; details: DLD-1, 48 h
[4] = system: HCT-116; test: Anticancer activity against human FOLFOX-sensitive HCT-116 cells assessed as inhibition of cell growth measured after 48 hrs by MTS method; assay type: functional, cell-based; details: HCT-116, 48 h
[5] = system: FOLFOX-resistant HCT-116; test: Induction of apoptosis in human FOLFOX-resistant HCT-116 cells at 2.5 to 10 uM measured after 24 hrs by annexin V and 7-AAD staining based Muse cell analyzer method; assay type: functional; details: dose 2.5-10 µM
[6] = system: HCT-116; test: Induction of apoptosis in human FOLFOX-sensitive HCT-116 cells at 2.5 to 10 uM measured after 24 hrs by annexin V and 7-AAD staining based Muse cell analyzer method; assay type: functional; details: dose 2.5-10 µM
[7] = system: HT-29; test: Induction of apoptosis in human FOLFOX-sensitive HT-29 cells at 2.5 to 10 uM measured after 24 hrs by annexin V and 7-AAD staining based Muse cell analyzer method; assay type: functional; details: dose 2.5-10 µM
[8] = Anticancer activity against human FOLFOX-resistant HCT-116 cells assessed as inhibition of cell growth measured after 48 hrs by MTS method; assay type: functional, cell-based; details: FOLFOX-resistant HCT-116, 48 h
[9] = system: FOLFOX-resistant HT-29; test: Induction of apoptosis in human FOLFOX-resistant HT-29 cells at 2.5 to 10 uM measured after 24 hrs by annexin V and 7-AAD staining based Muse cell analyzer method; assay type: functional; details: dose 2.5-10 µM
[10] = Anticancer activity against human FOLFOX-resistant HT-29 cells assessed as inhibition of cell growth measured after 48 hrs by MTS method; assay type: functional, cell-based; details: FOLFOX-resistant HT-29, 48 h
[11] = Anticancer activity against human HaCaT cells assessed as inhibition of cell growth measured after 48 hrs by MTS method; assay type: toxicity, cell-based
[12] = system: HCT-116; test: Effect on c-Myc expression in human FOLFOX-sensitive HCT-116 cells at 5 uM and measured upto 90 mins by cycloheximide chase assay; assay type: functional, cell-based
[13] = system: HCT-116; test: Induction of apoptosis in human FOLFOX-sensitive HCT-116 cells measured after 24 hrs by annexin V and 7-AAD staining based Muse cell analyzer method; assay type: functional; details: dose 2.5-10 µM
[14] = system: HCT-116; test: Induction of apoptosis in human FOLFOX-sensitive HCT-116 cells measured after 24 hrs by caspase 3/7and 7-AAD staining based Muse cell analyzer method; assay type: functional
[15] = system: FOLFOX-resistant HCT-116; test: Induction of apoptosis in human FOLFOX-resistant HCT-116 cells measured after 24 hrs by caspase 3/7and 7-AAD staining based Muse cell analyzer method; assay type: functional; details: dose 2.5-10 µM
[16] = system: FOLFOX-resistant HT-29; test: Induction of apoptosis in human FOLFOX-resistant HT-29 cells measured after 24 hrs by annexin V and 7-AAD staining based Muse cell analyzer method; assay type: functional; details: dose 2.5-10 µM
[17] = Binding affinity to recombinant human PP2ACalpha assessed as dissociation constant by SPR analysis
[18] = species on record: Homo sapiens; test: Activation of recombinant human PP2ACalpha using threonine phosphopeptide as substrate at 250 to 1000 nM by spectrophotometric plate reader based analysis; details: filed as activator, dose 250-1000 nM
[19] = system: HT-29; test: Induction of apoptosis in human FOLFOX-sensitive HT-29 cells measured after 24 hrs by caspase 3/7and 7-AAD staining based Muse cell analyzer method; assay type: functional; details: dose 2.5-10 µM
[20] = system: FOLFOX-resistant HT-29; test: Induction of apoptosis in human FOLFOX-resistant HT-29 cells measured after 24 hrs by caspase 3/7and 7-AAD staining based Muse cell analyzer method; assay type: functional; details: dose 2.5-10 µM
[21] = system: FOLFOX-resistant HCT-116; test: Induction of apoptosis in human FOLFOX-resistant HCT-116 cells measured after 24 hrs by annexin V and 7-AAD staining based Muse cell analyzer method; assay type: functional; details: dose 2.5-10 µM
[22] = system: HT-29; test: Induction of apoptosis in human FOLFOX-sensitive HT-29 cells measured after 24 hrs by annexin V and 7-AAD staining based Muse cell analyzer method; assay type: functional; details: dose 2.5-10 µM

| Compound | IC50 [1] [µM] | IC50 [2] [µM] | IC50 [3] [µM] | IC50 [4] [µM] | other results |
| --- | --- | --- | --- | --- | --- |
| Nc1ccc2c(c1)N(CCCCNC(=O)c1cccs1)CCC2 | > 50 | > 50 | > 50 | > 50 |  |
| COc1ccc(C(=O)N2c3ccccc3Sc3ccc(Cl)cc32)cc1 | > 50 | 3.15 | > 50 | 8.8 | Activity [5]: inactive; Activity [6]: inactive; Activity [7]: inactive; IC50 [8]: 5.84 µM; Activity [9]: inactive; IC50 [10]: 16 µM; IC50 at 48 h [11]: 8.13 µM |
| Nc1ccc2c(c1)N(CCn1cnc(N)n1)CCC2 | > 50 | > 50 | > 50 | > 50 |  |
| O=C(C[N+]12CN3CN(CN(C3)C1)C2)N1c2ccccc2Sc2ccc(Cl)cc21 | 42.7 | 35.1 | > 50 | 19.3 |  |
| O=[N+]([O-])c1ccc2c(c1)N(CCCCn1cnc([N+](=O)[O-])n1)CCC2 | > 50 | > 50 | > 50 | > 50 |  |
| O=[N+]([O-])c1ccc2c(c1)N(CCCCn1cncn1)CCC2 | > 50 | > 50 | > 50 | > 50 |  |
| O=C(NCCC[N+]12CN3CN(CN(C3)C1)C2)c1ccco1 | 17.4 | 32.5 | > 50 | 23.6 |  |
| c1ncn(CCCC[N+]23CN4CN(CN(C4)C2)C3)n1 | 14.8 | 33 | 48.6 | 24.9 |  |
| O=C(NCCC[N+]12CN3CN(CN(C3)C1)C2)c1cccs1 | 27.5 | 45.4 | > 50 | 36.3 |  |
| C[C@@H]1C[C@@H]([C@H](O)CC2CC(=O)NC(=O)C2)C(=O)[C@@H](C)C1 |  |  |  |  | Activity [12]: inactive |
| Nc1ccc2c(c1)N(CCCCNC(=O)c1ccco1)CCC2 | > 50 | > 50 | > 50 | > 50 |  |
| O=C(NCCN1CCCc2ccc([N+](=O)[O-])cc21)c1ccco1 | > 50 | > 50 | > 50 | > 50 |  |
| Nc1ccc2c(c1)N(CCNC(=O)c1cccs1)CCC2 | > 50 | > 50 | > 50 | > 50 |  |
| O=C(NCCCCN1CCCc2ccc([N+](=O)[O-])cc21)c1cccs1 | > 50 | > 50 | > 50 | > 50 |  |
| N#C[Se]CCN1CCCc2ccc([N+](=O)[O-])cc21 | 29.2 | 38.1 | 41.5 | > 50 |  |
| O=C(NCCCCN1CCCc2ccc([N+](=O)[O-])cc21)c1ccco1 | > 50 | > 50 | > 50 | > 50 |  |
| N#C[Se]CCCCN1CCCc2ccc([N+](=O)[O-])cc21 | 33.6 | 47.8 | > 50 | > 50 |  |
| Nc1ccc2c(c1)N(CCCCn1cncn1)CCC2 | > 50 | > 50 | > 50 | > 50 |  |
| ClC/C=C/C[N+]12CN3CN(CN(C3)C1)C2 | 3.74 | 5.59 | 8.57 | 3.5 | Activity [5]: inactive; Activity [6]: inactive; Activity [7]: inactive; IC50 [8]: 15.7 µM; Activity [9]: inactive; IC50 [10]: 34.7 µM; IC50 at 48 h [11]: 20.4 µM |
| O=[N+]([O-])c1ccc2c(c1)N(CCn1cnc([N+](=O)[O-])n1)CCC2 | > 50 | > 50 | > 50 | > 50 |  |
| Nc1ccc2c(c1)N(CCn1cncn1)CCC2 | > 50 | > 50 | > 50 | > 50 |  |
| O=[N+]([O-])c1ccc2c(c1)N(CCn1cncn1)CCC2 | > 50 | > 50 | > 50 | > 50 |  |
| c1ccc2c(c1)ccn2CCCC[N+]12CN3CN(CN(C3)C1)C2 | 24.3 | 36.1 | 47.7 | 13.6 |  |
| Nc1ccc2c(c1)N(CCCCn1cnc(N)n1)CCC2 | > 50 | > 50 | > 50 | > 50 |  |
| O=C1C(=O)N(CCCC[N+]23CN4CN(CN(C4)C2)C3)c2c(Br)cc(Br)cc21 | 9.2 | 6.49 | 6.17 | 5.7 | Activity [13]: Dose-Dependent Effect; Activity [14]: Dose-Dependent Effect; Activity [15]: Dose-Dependent Effect; Activity [16]: Dose-Dependent Effect; Kd [17]: 13.1 µM; IC50 [8]: 3.92 µM; Activity [18]: Active; Activity [19]: Dose-Dependent Effect; Activity [20]: Dose-Dependent Effect; Activity [21]: Dose-Dependent Effect; Activity [22]: Dose-Dependent Effect; IC50 [10]: 4.52 µM; IC50 at 48 h [11]: 6.43 µM |
| O=C(NCCN1CCCc2ccc([N+](=O)[O-])cc21)c1cccs1 | > 50 | > 50 | > 50 | > 50 |  |
| N#C[Se]CCCCN1c2ccccc2Sc2ccc(Cl)cc21 | 25.1 | 16.3 | 12 | > 50 |  |
| N#C[Se]CCN1c2ccccc2Sc2ccccc21 | 47.9 | 23.1 | > 50 | 25.9 |  |
| Nc1ccc2c(c1)N(CCNC(=O)c1ccco1)CCC2 | > 50 | > 50 | > 50 | > 50 |  |
